Data set [1] relates to RBL-2H3. The data set is described as follows: Anti-allergic activity in rat RBL2H3 cells assessed as reduction in calcium ionophore-induced beta-hexosaminidase release preincubated for 15 mins followed by calcium ionophore-stimulation and measured after 3 hrs by p-nitrophenyl-2-acetamide-2-deoxy-beta-glucopyranoside dye-based colorimetric analysis. Format: functional, cell-based.

Data set [2] deals with RBL-2H3. As to the kind of experiment: Anti-allergic activity in rat RBL2H3 cells assessed as reduction in mouse anti-DNP IgE-induced beta-hexosaminidase release preincubated for 15 mins followed by mouse anti-DNP IgE-stimulation and measured after 3 hrs by p-nitrophenyl-2-acetamide-2-deoxy-beta-glucopyranoside dye-based colorimetric analysis. Format: functional, cell-based.

For data set [3], the system named is RBL-2H3. As to the kind of experiment: Cytotoxicity in rat RBL2H3 cells assessed as LDH release. Also noted: concentration or dose not given beside the values. Format: cell-based. Background: LDH leaks from cells whose membrane has failed.
In data set [4] the test system is RBL-2H3. As to the kind of experiment: Anti-allergic activity in rat RBL2H3 cells assessed as reduction in mouse anti-DNP IgE-induced TNF-alpha level preincubated for 15 mins followed by mouse anti-DNP IgE-stimulation and measured after 3 hrs by ELISA. Format: functional, cell-based. (In general: In an ELISA, binding on a coated surface is turned into a signal by an enzyme label.)

In data set [5] the test system is RBL-2H3. As to the kind of experiment: Anti-allergic activity in rat RBL2H3 cells assessed as reduction in calcium ionophore-induced TNF-alpha level preincubated for 15 mins followed by calcium ionophore stimulation and measured after 3 hrs by ELISA. Format: functional, cell-based.
The subject of data set [6] is RBL-2H3. The data set is described as follows: Anti-allergic activity in rat RBL2H3 cells assessed as reduction in calcium ionophore-induced IL-4 level preincubated for 15 mins followed by calcium ionophore stimulation and measured after 3 hrs by ELISA. Format: functional, cell-based.
In data set [7] the test system is RBL-2H3. The data set is described as follows: Anti-allergic activity in rat RBL2H3 cells assessed as reduction in mouse anti-DNP IgE-induced IL-4 level preincubated for 15 mins followed by mouse anti-DNP IgE-stimulation and measured after 3 hrs by ELISA. Format: functional, cell-based.
The target in data set [8] is Tyrosine-protein kinase Lyn (Rattus norvegicus) (UniProt Q07014). The data set is described as follows: Inhibition of mouse anti-DNP IgE-induced Lyn phosphorylation in rat RBL2H3 cells at 10 uM preincubated for 15 mins followed by mouse anti-DNP IgE stimulation and measured after 3 hrs by Western blot analysis. Format: cell-based. In general terms: In western blotting, separated proteins are transferred to a membrane and probed.

Data set [9] has as its target Tyrosine-protein kinase Lyn (Homo sapiens) (UniProt P07948). As to the kind of experiment: Competitive inhibition of human LYN expressed in baculovirus infected Sf9 insect cells using […] at 10 uM after 10 mins by Lineweaver-Burk plot analysis.
Data set [10] has as its target Tyrosine-protein kinase Lyn (Rattus norvegicus) (UniProt Q07014). The data set is described as follows: Inhibition of Lyn in rat RBL2H3 cells assessed as reduction in mouse anti-DNP IgE-induced PLCgamma1-phosphorylation level at 10 uM preincubated for 15 mins followed by mouse anti-DNP IgE stimulation and measured after 3 hrs by Western blot analysis. Format: cell-based.

For data set [11], the system named is RBL-2H3. The data set is described as follows: Effect on mouse anti-DNP IgE-induced Lyn protein expression in rat RBL2H3 cells at 10 uM preincubated for 15 mins followed by mouse anti-DNP IgE stimulation and measured after 3 hrs by Western blot analysis. Format: functional, cell-based.
In data set [12] the test system is RBL-2H3. The data set is described as follows: Effect on mouse anti-DNP IgE-induced Syk protein expression in rat RBL2H3 cells at 10 uM preincubated for 15 mins followed by mouse anti-DNP IgE stimulation and measured after 3 hrs by Western blot analysis. Format: functional, cell-based.
The target in data set [13] is Tyrosine-protein kinase Lyn (Rattus norvegicus) (UniProt Q07014). The data set is described as follows: Inhibition of Lyn in rat RBL2H3 cells assessed as reduction in mouse anti-DNP IgE-induced Syk phosphorylation level at 10 uM preincubated for 15 mins followed by mouse anti-DNP IgE stimulation and measured after 3 hrs by Western blot analysis. Format: cell-based.

For data set [14], the target named is Tyrosine-protein kinase Lyn (Homo sapiens) (UniProt P07948). Conditions: Sf9, 10 uM.
Description: Inhibition of human LYN expressed in baculovirus infected Sf9 insect cells using p-nitrophenol at 10 uM after 10 mins by Lineweaver-Burk plot analysis

Activity calls are given as the source filed them. No cut-off for these calls is given here.

Chain of Tyrosine-protein kinase Lyn (Homo sapiens) (P07948 2-512 limits assumed): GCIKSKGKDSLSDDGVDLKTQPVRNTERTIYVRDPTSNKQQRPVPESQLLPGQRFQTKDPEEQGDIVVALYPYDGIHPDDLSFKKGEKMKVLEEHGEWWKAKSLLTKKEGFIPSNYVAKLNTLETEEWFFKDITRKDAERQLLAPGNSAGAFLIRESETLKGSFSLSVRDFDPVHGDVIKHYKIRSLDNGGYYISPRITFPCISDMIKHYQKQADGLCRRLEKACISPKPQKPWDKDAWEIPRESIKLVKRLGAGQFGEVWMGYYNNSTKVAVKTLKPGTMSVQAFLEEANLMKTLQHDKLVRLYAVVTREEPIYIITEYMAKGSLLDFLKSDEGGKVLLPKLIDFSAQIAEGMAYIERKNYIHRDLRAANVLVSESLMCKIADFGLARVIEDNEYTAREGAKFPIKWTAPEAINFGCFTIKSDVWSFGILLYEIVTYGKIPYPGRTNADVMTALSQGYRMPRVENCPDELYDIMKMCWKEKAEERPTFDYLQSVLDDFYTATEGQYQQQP
Chain of Tyrosine-protein kinase Lyn (Rattus norvegicus) (Q07014 whole entry): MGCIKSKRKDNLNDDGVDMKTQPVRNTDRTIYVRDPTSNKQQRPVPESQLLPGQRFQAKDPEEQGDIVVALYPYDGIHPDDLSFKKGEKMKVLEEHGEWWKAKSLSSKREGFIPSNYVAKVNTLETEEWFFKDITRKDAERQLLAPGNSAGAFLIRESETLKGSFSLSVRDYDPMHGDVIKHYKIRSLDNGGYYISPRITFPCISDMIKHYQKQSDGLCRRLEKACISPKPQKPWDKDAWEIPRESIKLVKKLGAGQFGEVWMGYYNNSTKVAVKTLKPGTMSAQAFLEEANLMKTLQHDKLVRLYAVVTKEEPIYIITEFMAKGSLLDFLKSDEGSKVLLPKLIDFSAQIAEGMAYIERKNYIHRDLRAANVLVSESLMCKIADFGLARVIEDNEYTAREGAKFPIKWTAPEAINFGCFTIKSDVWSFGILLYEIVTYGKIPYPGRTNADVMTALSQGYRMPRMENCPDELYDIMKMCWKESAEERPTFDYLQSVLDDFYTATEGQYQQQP

Consider `C/C=C/C=C/C(O)=C1/C(=O)[C@@]2(C)[C@H]3\C(=C(O)/C=C/C=C/C)C(=O)[C@@]4(C)[C@@H]1[C@]1(C)O[C@@]4(O)[C@@]3(C)O[C@@]12O`, for which the IC50 (as a rule, the concentration that gives 50% inhibition) in [1] was less than 100 µM; in data set [2], 18.3 µM; in data set [4], 29.6 µM; in data set [5] it was 23.2 µM; in data set [6], 9.1 µM; in data set [7], 6.9 µM. Besides, the Activity in data set [3] is reported as less than 5%.
Take `C/C=C/C=C/C(=O)C1=C[C@@]2(C)[C@H]3C(C(=O)/C=C/C=C/C)=C(O)C(C)=C(O)[C@@]3(C)O[C@@]2(O)[C@@](C)(O)C1=O` [BISVERTINOLONE]: the half-inhibitory concentration (IC50) was less than 100 µM in data set [1]; 9.1 µM in data set [2]; 40.8 µM in data set [4]; less than 100 µM in data set [5]; 7.3 µM in data set [6]; 7.7 µM in data set [7]. In [3], the Activity is less than 5%.
Regarding `C/C=C/C=C/C(O)=C1/C(=O)[C@@]2(C)[C@H]3\C(=C(O)/C=C/C=C/C)C(=O)[C@H]4[C@@H]1[C@]1(C)O[C@@]4(O)[C@@]3(C)O[C@@]12O`, the IC50 was less than 100 µM in data set [1]; 4.5 µM in data set [2]; 17.3 µM in [4]; less than 100 µM in [5]; 17.9 µM in data set [6]; 59.4 µM in data set [7]. Besides, in data set [3], the Activity is less than 5%.
Consider `C/C=C/C=C/C(=O)C1=C[C@](C)(OC(C)=O)C(=O)C(C)=C1O`, for which the half-maximal inhibitory concentration (IC50) in data set [1] was less than 100 µM; in data set [2], 4.8 µM; in data set [4], 35.6 µM; in data set [5] it was less than 100 µM; in [6], 27.1 µM; in [7] it was 8.5 µM. For the same molecule, the Activity in data set [3] was less than 5%.
As for `C/C=C/C=C/C(=O)[C@]12C(=O)C(C)=C(O)[C@@](C)(O)[C@H]1[C@H]1\C(=C(O)/C=C/C=C/C)C(=O)[C@]2(C)C(=O)[C@@]1(C)O` [BISORBICILLINOL], the half-maximal inhibitory concentration (IC50) in data set [1] was determined as 53.6 µM; in data set [2], 2.8 µM; in data set [4], 2.9 µM; in data set [5], 63.8 µM; in [6] it was 4.9 µM; in data set [7], 2.8 µM. For the same molecule, the Activity in data set [3] is less than 5%. Moreover, the inhibition result in data set [8] was “inactive”. Also, the inhibition result in data set [9], in data set [10] and in data set [13] was “Active” throughout. The outcome in [11] and in [12] was inactive.
As to `CN[C@@H]1C[C@H]2O[C@@](C)([C@@H]1OC)n1c3ccccc3c3c4c(c5c6ccccc6n2c5c31)C(=O)NC4`, the inhibition result in [9] is “inactive”. Further, in data set [14], the inhibition result is “Active”.
For `C/C=C/C=C/C(=O)c1cc(C)c(O)c(C)c1O`, the IC50 was less than 100 µM in [1], 26.5 µM in [2] and less than 100 µM in data set [5]. In data set [3], the Activity is less than 5%.

For the origin of these results see ChEMBL document CHEMBL4422669, “Bisorbicillinol inhibits Lyn tyrosine kinase for allergic response on RBL-2H3 cells” (Bioorg Med Chem Lett, 2019).
